In EP0100983A1, “Steroid compounds with choleretic activity, a process for their preparation, and therapeutic compounds which contain them as active principle” (PROTER S.p.A., priority 1982, dated 1984):
Where a name gives a salt, the structure may show the parent alone.

How the values were obtained:
[1] = tested on: male albino rats of Wistar stock; experiment: Choleretic activity in bile-duct (choledocus) cannulated rats, method of D'Armour and coll.: bile flow (test a) and bile dry residue (test b); type: in vivo; conditions: rat
Excerpt: By way of example, details are given of the activity of 3α,7β-dihydroxy-6/3-cholan-24-oyl acetic acid (A) and of its trimebutine salt (B) compared with ursodeoxycholic acid (C), using the method of D'Armour and coll. (J. Pharmacol. Exp. Theor. 133, 400 (1961)).
This method consists essentially of cannulating the choledocus of the treated animals and collecting the bile before and after treatment with the drugs.
24 male albino rats of Wistar stock were used having an average weight of 400 g and divided into 4 batches of 6 animals each.
In the method used, after the surgical cannulation, the bile was allowed to flow out for about 30-45 minutes in order to regulate the flow, after which the basic bile was collected for 60 minutes.
After this time, the drug was administered into the subpyloric duodenal tract at a dose of 0.5 mM/kg, and the bile was collected in suitable graduated test tubes, the samples of each animal being split into periods of exactly 60 minutes, for a time of 3 hours after treatment. The following were then determined for each animal: • a) the quantity of bile which had flown out after each hour, and • b) the dry residue obtained after drying each sample under vacuum.
The tested compounds were solubilised with stoichiometric quantities of M NaOH, to obtain solutions or suspensions at pH 10.
Physiological solution (S.F.) adjusted to pH 10 by M NaOH was used for the control group.
The data obtained in the described experiments by administering equimolar doses of the products A and B and of the comparison drug C are shown on the accompanying graphs.

Wistar rats = experiment: Acute toxicity by oral administration in the rat; type: in vivo
Experimental: Acute toxicity was also tested by oral administration of the acid A and the salt B in the rat in comparison with ursodeoxycholic acid. 60 Wistar rats of the two sexes were used having an average weight of 200 g, divided randomly into three batches of 10 males and 10 females and treated orally by gastric probe with the following products: • batch 1: ursodeoxycholic acid (C) - 15% suspension in a 10% solution of gum arabic; […] equivalent to 3 g/kg of product; • batch 2: product (A) - 15% suspension in a 10% solution of gum arabic: 20 ml/kg equivalent to 3 g/kg of product; • batch 3: product (B) - 15% suspension in a 10% solution of gum arabic: 20 ml/kg equivalent to 3 g/kg of product.
The animals, kept under observation for two weeks, registered no case of death or other toxicity symptom.

guinea pig ileum = experiment: In vitro antispastic activity on the guinea pig ileum against acetylcholine bromide; conditions: relative to trimebutine hydrochloride
Excerpt: Compound B was also used in "in vibro" antispastic activity tests on the guinea pig ileum, using acetylcholine bromide as […] in canparison with trimebutine hydrochloride.

Q: Which “maximum intensity action on the bile flow” value ([1]; 0.5 mM/kg into the subpyloric duodenal tract, compared with ursodeoxycholic acid (C) at equal dose, Figure 1) does the source give for `CC(CCC(=O)OCC(=O)O)C1CCC2C3C(O)CC4CC(O)CCC4(C)C3CCC12C` (stereo not drawn) [A, 3α,7β-dihydroxy-6β-cholan-24-oyl acetic acid] here?
A: practically equivalent to that of the comparison drug

Q: And the “activity on the bile flow after 1 hour” value ([1]; 0.5 mM/kg intraduodenal, 1 hour after treatment, relative to comparison drug C, Figure 1)?
A: slightly less

Q: What about the “activity on the bile flow after 2 hours” value ([1]; 0.5 mM/kg intraduodenal, 2 hours after treatment, relative to comparison drug C, Figure 1) of the same compound?
A: greater

Q: And the “dry residual content of the bile (indicative of the bile salt content), maximum values” ([1]; 0.5 mM/kg intraduodenal, compared with ursodeoxycholic acid, Figure 2)?
A: practically equal to that obtained after treatment with ursodeoxycholic acid

Q: What about the “tolerability when administered orally in a single dose” value (Wistar rats; single oral dose 3 g/kg) of the same compound?
A: very well tolerated

Q: Which results are given for `CC(CCC(=O)OCC(=O)O)C1CCC2C3C(O)CC4CC(O)CCC4(C)C3CCC12C` (stereo not drawn) [Compound B, 2-dimethylamino-2-phenylbutyl 3,4,5-trimethoxybenzoate salt of 3α ,7β-dihydroxy-6β-cholan-24-oyl acetic acid]?
A: activity on the bile flow after 3 hours ([1]; 0.5 mM/kg intraduodenal, 3 hours after treatment, Figure 1): high; antispastic activity (guinea pig ileum): approximately double that of trimebutine; toxicity (concluding statement) (Wistar rats; oral): absolute absence of toxicity

Q: `C[C@H](CCC(=O)O)[C@H]1CC[C@H]2[C@@H]3[C@@H](O)C[C@@H]4C[C@H](O)CC[C@]4(C)[C@H]3CC[C@]12C` [ursodeoxycholic acid, 3α ,7β-dihydroxy-6β-cholan-24-oic acid, reference compound] was tested. Which “duration of the action” value ([1]; 0.5 mM/kg intraduodenal, bile dry residue test (Figure 2)) did it give?
A: 1 h
